System: db/db mice
Experiment: Serum iron content of db/db mice
Type: in vivo, mouse
Parameters: iron content in the serum: unit not given here
Conditions: for iron content in the serum: 6 weeks, db/db model group 28.13±4.46
Excerpt: db/db mice are congenital obese type 2 DKD mice with spontaneous mutations in the leptin receptor (Leptin receptor, Lepr) due to a point mutation in the leptin receptor gene GT located on chromosome 4. The course of polyphagia, polyuria, diabetes and hyperglycemia is similar to that of humans, and it is currently the most widely used type 2 spontaneous animal model of DKD. The db/db mice have a series of complications with the aggravation of diabetes. The main pathological changes of renal tissue are the expansion of the glomerular mesangial interstitium, the thickening of the glomerular basement membrane, and the excessive accumulation of extracellular matrix. However, the glomerular mesangium of db/db mice changes relatively slowly, and the glomerular mesangium will not be dissolved or nodular glomerulosclerosis, and there is no progressive renal insufficiency.
Six-week-old db/db mice were purchased, and start the administration after adaptive feeding for 1 week (i.e., 7-week-old). TBN is administered twice a day (fixed by starting from 9:00-10:00 am and 3:00-4:00 pm, with an interval of 6 hours), and the positive control drug Losartan was administered once a day (fixed at 9:00-10:00 am) for 6 weeks.
At the end of the experiment, serum iron content was measured by using automatic biochemical analyzer.

With `Cc1nc(C)c(/C=[N+](\[O-])C(C)(C)C)nc1C` [TBN] the “iron content in the serum” value (10 mg/kg) was 30.84±5.92, the “iron content in the serum” value (30 mg/kg) was 36.20±11.89 and the “effect of increasing iron ions compared with positive control drug” value (each dose group of TBN vs Losartan) was “stronger than the positive control drug group”.

— patent publication US12377095B2, “Use of ligustrazine nitrone derivatives in treatment and prevention of diabetic complication diseases” (QINGDAO HAILAN PHARMACEUTICALS CO., LTD., priority 2019, dated 2025)
